# Measurements taken from US4551532A, “Ethylene glycol derivatives having anti-protozoan, anti-fungal and anti-tumor activity” (priority 1980, dated 1985).
# Read-outs that look alike come from different tables or passages of the source.
# What was measured:
# Cochliobolus miyabeanus = experiment: antifungal activity, serial dilution method; assay type: cell-based; settings: Bipolaris oryzae
# Pyricularia oryzae = experiment: microbe, parasite or virus in culture; assay type: cell-based
# [1] = tested on: Colletotrichum lagenarium; experiment: antifungal activity, serial dilution method; assay type: cell-based; settings: Colletotrichum orbiculare
# Botrytis cinerea = experiment: antifungal activity, serial dilution method; assay type: cell-based; settings: Botrytis cinerea (gray mold); 1% glucose-bouillon agar
# Hamigera = experiment: antimycotic activity, paper disk inhibition circle; assay type: cell-based; settings: 48 h; 8 mm paper disk, 3 mg/ml, 37° C., 2 days; read-out: Growth inhibition Hamigera
# Protocol: (§1) Referring to the antimycotic activity presented in Table 2, Cryptoccoccus neoformans and others were used as the test microbes, a paper disk (8 mm in diameter) was immersed in an aqueous solution of each test compound having a concentration of 3 mg/ml, air dried and placed on an agar medium, then incubation was conducted at 37° C. for 2 days, and the inhibition circle was measured. When the diameter of the inhibition circle was not larger than 8 mm, 8-10 mm, 10-20 mm, or larger than 20 mm, the activity was judged as -, ±, + or ++, respectively.
# Cryptococcus neoformans = experiment: antimycotic activity, paper disk inhibition circle; assay type: cell-based; settings: 48 h, 8 mm paper disk, 3 mg/ml, 37° C., 2 days, read-out: Growth inhibition Cryptococcus
# Protocol: as §1
# Rhodotorula = experiment: antimycotic activity, paper disk inhibition circle; assay type: cell-based; settings: 48 h, 8 mm paper disk, 3 mg/ml, 37° C., 2 days, read-out: Growth inhibition Rhodotorula
# Protocol: as §1
# Sclerotinia sclerotiorum = experiment: antifungal activity, serial dilution method; assay type: cell-based; settings: Sclerotinia sclerotiorum (kidney bean stem rot); 1% glucose-bouillon agar
# Aspergillus niger = experiment: antifungal activity, serial dilution method; assay type: cell-based
# Saccharomyces cerevisiae = experiment: antifungal activity, serial dilution method; assay type: cell-based
# [2] = tested on: human myelocytic leukemia cells HL-60; experiment: growth inhibiting effect (IG effect) on HL-60; assay type: cell-based; settings: HL-60, 120 h, 5 day culture, read-out: IG effect on HL-60 GD50
# [3] = tested on: Tetrahymena pyriformis W strain; experiment: antiprotozoal activity, broth dilution method; assay type: cell-based; settings: 28° C., 44-48 hours, pH 7.0, read-out: Growth inhibition MIC Tetrahymena
# Leptosphaeria salvinii = experiment: antifungal activity, serial dilution method; assay type: cell-based; settings: Nakataea oryzae
# CDF1 mice = experiment: toxicity in CDF1 mice; assay type: in vivo, mouse; settings: intraperitoneal 100 mg/kg, observation period one week
# Protocol: The compounds of this invention are of relatively low toxicity. For example, the compound of Example 7 causes no deaths in CDF1 mice even at an intraperitoneal dose of 100 mg/kg (observation period: one week). The hemolytic activity of these compounds is also low in general. For example, in a hemolysis test (with human erythrocytes) by the method of Gottfried et al. [J. Lipid Research, 4, 57 (1963)], the 50% hemolytic concentration of the compound of Example 15 was about 10 μg/ml.
# [4] = tested on: Rauscher virus-induced promyelocytic leukemia cells R453; experiment: cell proliferation inhibiting activity against R453 cells; assay type: cell-based; settings: Mus musculus, read-out: cell proliferation inhibiting activity (GD50 value)
# [5] = tested on: mouse spontaneous myelocytic leukemia cells MI (resistant clone); experiment: cell proliferation inhibiting activity against MI cells; assay type: cell-based; settings: read-out: cell proliferation inhibiting activity (GD50 value)
# Penicillium = experiment: antifungal activity, serial dilution method; assay type: cell-based, Penicillium niger
# [6] = Colletotrichum lagenarium (cucumber anthracnose), 1% glucose-bouillon agar, read-out: MIC
# [7] = Aspergillus niger (black mold), 1% glucose-bouillon agar, read-out: MIC
# [8] = Saccharomyces cerevisiae (brewer's yeast), 1% glucose-bouillon agar, read-out: MIC
# [9] = Leptosphaeria salvinii (rice stem rot), 1% glucose-bouillon agar, read-out: MIC
# [10] = Penicillium niger (blue mold), 1% glucose-bouillon agar, read-out: MIC
Compound,MIC (Cochliobolus miyabeanus) [µg/mL],MIC (Pyricularia oryzae) [µg/mL],"MIC [1, 6] [µg/mL]",MIC (Botrytis cinerea) [µg/mL],zone of inhibition at 3000 µg/mL (Cryptococcus neoformans) [mm],MIC (Sclerotinia sclerotiorum) [µg/mL],MIC (Aspergillus niger; [7]) [µg/mL],MIC [3] [µg/mL],MIC (Leptosphaeria salvinii; [9]) [µg/mL],also measured
"CCCCCCCCCCCCOCCOCCOP(=O)(O)OCCN [Example 12, 2-[2-(Dodecyloxy)ethoxy]ethyl 2-aminoethyl phosphate]",50,100,25,50,> 20,25,25,2 to 4,–,zone of inhibition at 3000 µg/mL (Hamigera): 10 to 20 mm; zone of inhibition at 3000 µg/mL (Rhodotorula): 10 to 20 mm; MIC (Saccharomyces cerevisiae; [8]): 100 µg/mL; IC50 [2]: 5 µg/mL
"CCCCCCCC/C=C\CCCCCCCCOCCOCCOCCOCCOP(=O)(O)OCCN [Example 10, 3,6,9,12-Tetraoxatriacont-21(Z)-enyl 2-aminoethyl phosphate]",–,–,–,–,10 to 20,–,–,> 4,–,IC50 [2]: 1 to 2 µg/mL
"CCCCCCCCCCOCCOCCOP(=O)([O-])OCC[N+](C)(C)C [Example 21, 3,6-Dioxahexadecyl 2-trimethylammonioethyl phosphate]",–,–,–,–,10 to 20,–,–,2,–,–
"CCCCCCCCCCCCOCCOCCOCCOCCOCCOP(=O)([O-])OCC[n+]1ccccc1 [Example 2, 3,6,9,12,15-Pentaoxaheptacosyl 2-pyridinioethyl phosphate]",–,–,–,–,8 to 10,–,–,> 4,–,zone of inhibition at 3000 µg/mL (Hamigera): < 8 mm; zone of inhibition at 3000 µg/mL (Rhodotorula): 10 to 20 mm
"CCCCCCCC/C=C\CCCCCCCCOCCOCCOP(=O)([O-])OCC[N+](C)(C)C [Example 7, 3,6-Dioxatetracos-15(Z)-enyl 2-trimethylammonioethyl phosphate]",25,3.12,25,6.25,> 20,–,25,0.4,25,deaths (CDF1 mice): no deaths; IC50 [4]: 2 to 3 µg/mL; zone of inhibition at 3000 µg/mL (Hamigera): > 20 mm; zone of inhibition at 3000 µg/mL (Rhodotorula): 10 to 20 mm; IC50 [5]: 8 to 11 µg/mL; MIC (Saccharomyces cerevisiae; [8]): 12.5 µg/mL; IC50 [2]: 1 to 2 µg/mL
"CCCCCCCCCCCCCCOCCOCCOP(=O)([O-])OCC[n+]1ccccc1 [Example 34, 3,6-Dioxaeicosyl 2-pyridinioethyl phosphate]",–,–,–,–,10 to 20,–,–,4,–,–
"CCCCCCCC/C=C\CCCCCCCCOCCOCCOP(=O)(O)OCCNC(C)(C)C [Example 8, 3,6-Dioxatetracos-15(Z)-enyl 2-tert-butylaminoethyl phosphate]",–,–,–,–,–,–,–,> 4,–,–
"CCCCCCCCCCCCCOCCOCCOP(=O)([O-])OCC[N+](C)(C)C [Example 29, 3,6-Dioxanonadecyl 2-trimethylammonioethyl phosphate]",–,–,–,–,> 20,–,–,≤ 1,–,–
"CCCCCCCCCCCCCCOCCOCCOP(=O)([O-])OCC[N+](C)(C)C [Example 26, 3,6-Dioxaeicosyl 2-trimethylammonioethyl phosphate]",12.5,3.12,1.56,6.25,10 to 20,50,–,0.2,6.25,MIC (Penicillium; [10]): 6.25 µg/mL; MIC (Aspergillus niger; Aspergillus niger): 12.5 µg/mL; MIC (Saccharomyces cerevisiae; [8]): 6.25 µg/mL
"CCCCCCCCCCCCOCCOCCOP(=O)([O-])OCC[n+]1ccc2ccccc2c1 [Example 32, 3,6-Dioxaoctadecyl 2-isoquinolinioethyl phosphate]",–,–,–,–,> 20,–,–,4,–,–
"CCCCCCCCCCCCCCOCCOCCOP(=O)(O)OCCN [Example 24, 3,6-Dioxaeicosyl 2-aminoethyl phosphate]",100,25,25,25,10 to 20,50,12.5,1 to 2,> 100,MIC (Penicillium; [10]): 6.25 µg/mL
"CCCCCCCCCCCCOCCOCCOCCOCCOCCOP(=O)([O-])OCC[N+](C)(C)C [Example 3, 3,6,9,12,15-Pentaoxaheptacosyl 2-trimethylammonioethyl phosphate]",–,–,–,–,< 8,–,–,> 4,–,–
"CCCCCCCCCCCCOCCOCCOCCOP(=O)(O)OCCN [Example 13, 3,6,9-Trioxaheneicosanyl 2-aminoethyl phosphate]",50,100,25,50,10 to 20,25,25,4,–,zone of inhibition at 3000 µg/mL (Hamigera): 10 to 20 mm; zone of inhibition at 3000 µg/mL (Rhodotorula): 10 to 20 mm; MIC (Saccharomyces cerevisiae; [8]): 100 µg/mL
"CCCCCCCCCCCCOCCOCCOP(=O)([O-])OCC[N+](C)(C)C [Example 25, 3,6-Dioxaoctadecyl 2-trimethylammonioethyl phosphate]",25,12.5,1.56,6.25,> 20,25,25,0.4,6.25,MIC (Penicillium; Penicillium): 12.5 µg/mL; MIC (Saccharomyces cerevisiae; Saccharomyces cerevisiae): 12.5 µg/mL
"CCCCCCCCCCCCOCCOCCOCCOCCOP(=O)(O)OCCN [Example 14, 3,6,9,12-Tetraoxatetracosyanyl 2-aminoethyl phosphate]",–,–,–,–,10 to 20,–,–,4,–,zone of inhibition at 3000 µg/mL (Hamigera): 10 to 20 mm; zone of inhibition at 3000 µg/mL (Rhodotorula): 10 to 20 mm
"CCCCCCCCCCCCOCCOCCOCCOP(=O)([O-])OCC[n+]1ccccc1 [Example 16, 3,6,9-Trioxaheneicosanyl 2-pyridinioethyl phosphate]",25,25,12.5,12.5,> 20,50,25,> 4,25,zone of inhibition at 3000 µg/mL (Hamigera): 10 to 20 mm; zone of inhibition at 3000 µg/mL (Rhodotorula): 10 to 20 mm; MIC (Penicillium; [10]): 12.5 µg/mL; MIC (Saccharomyces cerevisiae; [8]): 50 µg/mL
"CCCCCCCC/C=C\CCCCCCCCOCCOCCOP(=O)(O)OCCN [Example 5, 3,6-Dioxatetracos-15(Z)-enyl 2-aminoethyl phosphate]",–,–,–,–,8 to 10,–,–,4,–,–
"CCCCCCCCCCCCCCCCCCOCCOCCOP(=O)([O-])OCC[N+](C)(C)C [Example 18, 3,6-Dioxatetracoxyl 2-trimethylammonioethyl phosphate]",> 100,12.5,> 100,25,10 to 20,> 100,> 100,≥ 4,–,MIC (Leptosphaeria salvinii): 12.5 µg/mL; MIC (Penicillium; [10]): > 100 µg/mL
"CCCCCCCCCCOCCOCCOP(=O)(O)OCCN [Example 22, 3,6-Dioxahexadecyl 2-aminoethyl phosphate]",–,–,–,–,< 8,–,–,4,–,–
CCCCCCCCCCCCCOCCOCCOP(=O)([O-])OCC[N+](C)(C)C [Ex.],25,6.25,3.12,25,–,100,25,–,12.5,MIC (Penicillium; [10]): 12.5 µg/mL; MIC (Saccharomyces cerevisiae; [8]): 12.5 µg/mL
"CCCCCCCCCCCCCOCCOCCOP(=O)([O-])OCC[n+]1ccccc1 [Example 28, 3,6-Dioxanonadecyl 2-pyridinioethyl phosphate]",25,6.25,–,12.5,> 20,25,25,4,12.5,MIC [1]: 6.25 µg/mL; MIC (Penicillium; [10]): 12.5 µg/mL
